How the values were obtained:
[1] = Cmax in plasma was determined upon peroral administration of 10.0 mg/Kg dose in rat; format: ADME, organism-based; design: dose 10 mg/Kg, route oral; conditions: po
[2] = Tested for systemic clearance upon intravenous administration of 5.0 mg/Kg dose in rat; format: ADME, organism-based; conditions: in vivo
[3] = test system: Human immunodeficiency virus 1; assay: Tested for the ability to block cleavage of HIV-1 gag polyprotein using [35S]methionine-labeled ligand; format: functional, organism-based
[4] = Tested for volume of distribution at steady state upon intravenous administration of 5.0 mg/Kg dose in rat; format: ADME, organism-based; conditions: in vivo, read-out: Vss
Lymphocytoid cell line [5] = assay: Tested for the ability to inhibit viral replication (HIV-1 RNA) in human lymphocytoid cell lines MT-2 or MT-4 using the RF strain of HIV-1; format: functional
Lymphocytoid cell line [6] = assay: Tested for cytotoxicity (concentration required to reduce 50% of the viable cell population) in presence of metabolizable tetrazolium dye in human lymphocytoid cell lines MT-2 or MT-4 using the RF strain of HIV-1; format: functional; conditions: read-out: TC50 (the source's name)
[7] = target: Human immunodeficiency virus type 1 protease (Human immunodeficiency virus 1, UniProt Q72874); assay: Tested for inhibitory activity against HIV protease
[8] = Tested for t1/2 upon intravenous administration of 5.0 mg/Kg dose in rat; format: ADME, organism-based; conditions: in vivo
[9] = test system: Human immunodeficiency virus; assay: Ability to inhibit p24 mutant variant […] was determined; format: functional; conditions: Human immunodeficiency virus 1
[10] = Cmax in plasma was determined upon peroral administration of 10.0 mg/Kg dose in dog; format: ADME, organism-based, Canis lupus familiaris; design: dose 10 mg/Kg, route oral; conditions: po
[11] = test system: Human immunodeficiency virus; assay: Ability to inhibit p24 mutant variant V82F was determined; format: functional; conditions: Human immunodeficiency virus 1
[12] = Tested for t1/2 upon intravenous administration of 5.0 mg/Kg dose in dog; format: ADME, organism-based, Canis lupus familiaris; conditions: in vivo
[13] = Tested for volume of distribution at steady state upon intravenous administration of 5.0 mg/Kg dose in dog; format: ADME, organism-based, Canis lupus familiaris; conditions: in vivo, read-out: Vss
[14] = Bioavailability in dog (dose 10.0 mg/kg p.o.); format: ADME, organism-based, Canis lupus familiaris; conditions: in vivo, po
[15] = tmax upon peroral administration of 10.0 mg/Kg dose in dog; format: ADME, organism-based, Canis lupus familiaris; conditions: in vivo, po
[16] = Tested for t1/2 upon peroral administration of 10.0 mg/Kg dose in rat; format: ADME, organism-based; conditions: in vivo, po
[17] = Tested for t1/2 upon peroral administration of 10.0 mg/Kg dose in dog; format: ADME, organism-based, Canis lupus familiaris; conditions: in vivo, po
[18] = test system: Human immunodeficiency virus; assay: Ability to inhibit p24 mutant variant V82F/[…] was determined; format: functional; conditions: Human immunodeficiency virus 1
[19] = Tested for systemic clearance upon intravenous administration of 5.0 mg/Kg dose in dog; format: ADME, organism-based, Canis lupus familiaris; conditions: in vivo
[20] = test system: Human immunodeficiency virus; assay: Ability to inhibit p24 mutant variant HxB2 wild type was determined; format: functional; conditions: Human immunodeficiency virus 1
[21] = tmax upon peroral administration of 10.0 mg/Kg dose in rat; format: ADME, organism-based; conditions: in vivo, po
[22] = Bioavailability upon peroral administration of 10.0 mg/Kg dose in rat; format: ADME, organism-based; conditions: in vivo, po, read-out: Bioavailabiility

Structure (SMILES)	Cmax [1] [ng/mL]	clearance [2] [mL/min/kg]	IC50 [3] [nM]	Vd [4] [L/kg]	IC90 (Lymphocytoid cell line [5]) [nM]	CC50 (Lymphocytoid cell line [6]) [nM]	Ki [7] [nM]	half-life [8] [h]	IC90 [9] [nM]	Cmax [10] [ng/mL]	IC90 [11] [nM]	half-life [12] [h]	Vd [13] [L/kg]	bioavailability [14] [%]	Tmax [15] [h]	half-life [16] [h]	half-life [17] [h]	IC90 [18] [nM]	clearance [19] [mL/min/kg]	IC90 [20] [nM]	other results
O=C1N(Cc2cccc(CO)c2)[C@H](Cc2ccccc2)[C@H](O)[C@@H](O)[C@@H](Cc2ccccc2)N1Cc1cccc(CO)c1	470	103	7.9	9.8	38.8	54700	0.4	1.1	–	–	–	–	–	–	–	–	–	–	–	–	–
CC(C)(O)c1cccc(CN2C(=O)N(Cc3cccc(C(C)(C)O)c3)[C@H](Cc3ccccc3)[C@H](O)[C@@H](O)[C@H]2Cc2ccccc2)c1	630	31.8	15	3.04	33.7	33400	0.067	1.03	72.2	240	84.3	1.2	1.65	< 4	0.42	1.5	0.65	5780	15.5	22.2	–
CC(C)(O)c1ccc(CN2C(=O)N(Cc3ccc(C(C)(C)O)cc3)[C@H](Cc3ccccc3)[C@H](O)[C@@H](O)[C@H]2Cc2ccccc2)cc1	–	–	–	–	8040	39300	2.2	–	–	–	–	–	–	–	–	–	–	–	–	–	–
O=C1N(Cc2ccc(CO)cc2)[C@H](Cc2ccccc2)[C@H](O)[C@@H](O)[C@@H](Cc2ccccc2)N1Cc1ccc(CO)cc1 [DMP-323]	450	119	35.7	6.36	176	67500	0.31	0.95	989	1480	675	1.8	2.28	38.4	0.5	1.5	1.08	22000	24.7	95.6	Tmax [21]: 0.25 h; bioavailability [22]: 27.1%
